From patent US20250177366A1, “COMPOSITIONS AND METHODS FOR ALLEVIATING PAIN AND REDUCING ADVERSIVENESS OF STIMULI” (UNIVERSITY OF WASHINGTON, priority 2021, published 2025)

Tested on: larval zebrafish
Experiment: Chemical attraction/aversion assay with the test chemical itself as source (inherent attractiveness)
Format: in vivo, Zebrafish (Danio rerio)
Source text: To confirm that AS1 itself was not attractive, the chemical attraction/aversion assay was used. […] Since the assay was modified to accommodate the inability to dissolve SKF into agarose at high concentrations (see Materials and Methods), the inherent attractiveness of AS1 was re-tested using this new format.
Chemical attraction/aversion assays. The agarose attraction/aversion assay was adapted from previously described experiments (Jordi et al., Sci. Adv. 2018; 4:1-15). For the AITC aversion assay, AITC and DMSO were added to molten 0.8% agarose to achieve a final concentration of 100 mM AITC and 2% DMSO. For the AS1 attraction/aversion assay, AS1 and DMSO were added to 0.8% molten agar to achieve final concentrations of 50 mM and 2%, respectively. To construct the test chambers, the lids of 10×10 cm square petri dishes (insert cat #and company) were lined on four sides with either the test (chemical-containing) or plain agarose (300 μL per side) and allowed to solidify. For all experiments, 30-40 randomly selected 6 dpf zebrafish were caught with a 10 mL pipette pump (Bel-Air Products, cat #: 13683C) equipped with a glass wide-bored Pasteur pipet (Fisher Scientific, cat #: 22-037-540) and deposited into a standard 10 cm diameter petri dish (Fisher Scientific, cat #: 07-202-031). As much E2 media as possible was carefully removed using the same pipette. For single incubation experiments, 30 mL of 1× solutions of the control or test chemical was added to each petri dish, and fish were incubated for 10 minutes at 28.5° C. For double incubation experiments, 15 mL of 1× solutions containing control (DMSO) or test chemicals was added to the larvae-containing petri dish. […] Swimming behavior was immediately recorded for 20 minutes using the same high-definition camcorder in the thermal preference assays.
For the SKF attraction/aversion assay, custom 10 cm×10 cm plates using clear resin (Formlabs, cat #: RS-F2-GPCL-04) and a Form 3+3D printer (Formlabs, cat #: PKG-F3-WSVC-BASIC) were designed. […] Swimming behavior was then recorded for 20 minutes. […]

CC(C)c1ccc(C(=O)Nc2ccncc2)cc1 [AS1, 4-propan-2-yl-N-pyridin-4-ylbenzamide]
inherent attractiveness of chemical infused into agarose (50 mM AS1 in agarose on one side of square arena vs control agarose): did not approach it in a way that was appreciably different from control agarose
inherent attractiveness of chemical deposited into trough (2 mL in trough of 3D-printed arena, SKF 25 μM, AS1 10 μM-1 mM): neutral or mildly aversive
